Counter-ions that a name gives are not always drawn.

The first data set has as its target AMPA receptor. In words: Binding experiment against AMPA receptor ([3H]-AMPA binding, crude synaptic membranes from cerebral cortex). To be noted: rat cerebral cortex crude synaptic membranes; [3H]-AMPA 5 nmol/L, potassium thiocyanate 100 mmol/L, 30 minutes at 0° C.; IC50 converted to Ki. On the procedure:
Binding Experiment Against AMPA Receptor
To a crude synaptic membranes preparation prepared from cerebral cortex in rat were added [^3H]-AMPA (final concentration: 5 nmol/L) that binds selectively to AMPA receptors, potassium thiocyanate (final concentration: 100 mmol/L) and testing compound, and the mixture was incubated for 30 minutes at 0° C. After the reaction was stopped by suction filtration, the radioactivity on filter was measured with liquid scintillation counter. The specific binding level of [^3H]-AMPA was determined by subtracting the non-specific binding level in the presence of glutamic acid (0.1 mmol/L) from total binding level. The [^3H]-AMPA binding in the absence of testing compound was put on 100, and the concentration of compound to decrease by 50% (IC50 value) was determined, which was converted to Ki value to calculate the binding capacity of each compound to AMPA receptor (Eur. J. Pharmacol., 1993, 246, 195-204).
In the case of `CCOC(=O)c1ccc(NC(=O)OCc2cn(-c3cc4cc(C(=O)OCC)c(=O)[nH]c4cc3C(F)(F)F)cn2)cc1` [Example 18, Ethyl 1,2-dihydro-6-(4-(((4-ethoxycarbonylphenyl)carbamoyloxy)methyl)imidazole-1-yl)-2-oxo-7-trifluoromethylquinoline-3-carboxylate], the Ki amounted to 18.4 nM.

Consider `O=C(Nc1cccc(C(=O)O)c1)OCc1cn(-c2cc3cc(C(=O)O)c(=O)[nH]c3cc2[N+](=O)[O-])cn1` [Example 15, 6-(4-(((3-Carboxyphenyl)carbamoyloxy)methyl)imidazole-1-yl)-1,2-dihydro-7-nitro-2-oxoquinoline-3-carboxylic acid], for which the Ki came to 17.8 nM.

`O=C(Nc1ccccc1F)OCc1cn(-c2cc3cc(C(=O)O)c(=O)[nH]c3cc2[N+](=O)[O-])cn1` [Example 6] showed a Ki of 8.22 nM.

`O=C(Nc1ccccc1)OCc1cn(-c2cc3cc(C(=O)O)c(=O)[nH]c3cc2[N+](=O)[O-])cn1` [Example 2, 1,2-Dihydro-7-nitro-2-oxo-6-(4-((phenylcarbamoyloxy)methyl)imidazole-1-yl)quinoline-3-carboxylic acid] returned a Ki of 22.4 nM.

`O=C(Nc1ccc(C(=O)O)cc1)OCc1cn(-c2cc3cc(C(=O)O)c(=O)[nH]c3cc2[N+](=O)[O-])cn1` [Example 16, 6-(4-(((4-Carboxyphenyl)carbamoyloxy)methyl)imidazole-1-yl)-1,2-dihydro-7-nitro-2-oxoquinoline-3-carboxylic acid] displayed a Ki of 16.5 nM.

System in a further data set: not given
Experiment: not given
Conditions: not given
`O=C(Nc1ccccc1)OCc1cn(-c2cc3cc(C(=O)O)c(=O)[nH]c3cc2Cl)cn1` [Example 41, 7-Chloro-1,2-dihydro-2-oxo-6-(4-((phenylcarbamoyloxy)methyl)imidazole-1-yl)quinoline-3-carboxylic acid] returned a melting point of 180 to 182 °C.

As for `O=C(Nc1cccc(C(=O)O)c1)OCc1cn(-c2cc3cc(C(=O)O)c(=O)[nH]c3cc2Cl)cn1` [Example 43, 6-((((3-Carboxyphenyl)carbamoyloxy)methyl)imidazole-1-yl)-7-chloro-1,2-dihydro-2-oxoquinoline-3-carboxylic acid], the melting point was 263 to 265 °C (dec.).

Compound `O=C(NCc1ccccc1)OCc1cn(-c2cc3cc(C(=O)O)c(=O)[nH]c3cc2C(F)(F)F)cn1` [Example 32] displayed a melting point of 169 to 171 °C.

Compound `O=C(Nc1ccc(C(=O)O)cc1)OCc1cn(-c2cc3cc(C(=O)O)c(=O)[nH]c3cc2C(F)(F)F)cn1` [Example 19, 6-(4-(((4-Carboxyphenyl)carbamoyloxy)methyl)imidazole-1-yl)-1,2-dihydro-2-oxo-7-trifluoromethylquinoline-3-carboxylic acid] had a melting point of 218 to 220 °C.

Consider `O=C(Nc1ccccc1Br)OCc1cn(-c2cc3cc(C(=O)O)c(=O)[nH]c3cc2C(F)(F)F)cn1` [Example 25, 6-(4-(((2-Bromophenyl)carbamoyloxy)methyl)imidazole-1-yl)-1,2-dihydro-2-oxo-7-trifluoromethylquinoline-3-carboxylic acid], for which the melting point was 145 to 147 °C.

The compound `O=C(Nc1ccc(C(=O)O)cc1)OCc1cn(-c2cc3cc(C(=O)O)c(=O)[nH]c3cc2Cl)cn1` [Example 44, 6-((((4-Carboxyphenyl)carbamoyloxy)methyl)imidazole-1-yl)-7-chloro-1,2-dihydro-2-oxoquinoline-3-carboxylic acid] came in with a melting point of 249 to 251 °C.

For the compound `O=C(Nc1ccccc1F)OCc1cn(-c2cc3cc(C(=O)O)c(=O)[nH]c3cc2[N+](=O)[O-])cn1` (as salt: HCl) [Example 6], the melting point was 226 to 228 °C.

These data come from patent US6562839B1, “6-substituted heteroquinolinecarboxylic acid derivatives and addition salts thereof and processes for the preparation of both” (Kyorin Pharmaceutical Co., Ltd., priority 1999, dated 2003).
